According to PubChem BioAssay AID1259407 (Chemical Carcinogenesis Research Information System (CCRIS), 2018):
The source made the active and inactive calls. The rule behind the calls is not given here.

Tested on: CCRIS mutagenicity, Ames/micronucleus/aberration tests
Test: CCRIS mutagenicity studies
[1] = Test System: AMES SALMONELLA TYPHIMURIUM, Strain/Indicator: TA98, Metabolic Activation: NONE, Method: PREINCUBATION
[2] = Test System: AMES SALMONELLA TYPHIMURIUM, Strain/Indicator: TA100, Metabolic Activation: NONE, Method: PREINCUBATION
[3] = Test System: AMES SALMONELLA TYPHIMURIUM, Strain/Indicator: TA1535, Metabolic Activation: NONE, Method: PREINCUBATION
[4] = Test System: AMES SALMONELLA TYPHIMURIUM, Strain/Indicator: TA98, Metabolic Activation: NONE, Method: STANDARD PLATE

Measured: mutagenic call

CCOC(=O)Nc1cccc(OC(=O)Nc2ccccc2)c1
inactive: Test System: Ames Salmonella typhimurium, Strain/Indicator: TA98, Metabolic Activation: None inactive; negative | Test System: Ames Salmonella typhimurium, Strain/Indicator: TA98, Metabolic Activation: Rat, Liver, S-9 inactive; negative | Test System: Ames Salmonella typhimurium, Strain/Indicator: TA100, Metabolic Activation: None inactive; negative | Test System: Ames Salmonella typhimurium, Strain/Indicator: TA100, Metabolic Activation: Rat, Liver, S-9 inactive; negative | Test System: Ames Salmonella typhimurium, Strain/Indicator: TA1535, Metabolic Activation: None inactive; negative | Test System: Ames Salmonella typhimurium, Strain/Indicator: TA1535, Metabolic Activation: Rat, Liver, S-9 inactive; negative | Test System: Ames Salmonella typhimurium, Strain/Indicator: TA1537, Metabolic Activation: None inactive; negative | Test System: Ames Salmonella typhimurium, Strain/Indicator: TA1537, Metabolic Activation: Rat, Liver, S-9 inactive; negative | Test System: E. coli, Strain/Indicator: WP2, Metabolic Activation: None, Method: Not reported by DPR inactive; negative | Test System: E. coli, Strain/Indicator: WP2, Metabolic Activation: Rat, Liver, S-9, Method: Not reported by DPR inactive; negative

CC/C=C\C#N
active: Test System: MOUSE LYMPHOMA, Strain/Indicator: L5178Y (TK+/TK-), Metabolic Activation: NONE, Method: SUSPENSION/PLATE active; positive. reevaluation of results: positive | Test System: Mouse lymphoma, Strain/Indicator: L5178Y (tk+/tk-), Metabolic Activation: Rat, Liver, S-9, Aroclor 1254, Method: Suspension/plate active; positive

O=c1ccc(=O)[nH][nH]1
inactive: End Point: IN VITRO CHROMOSOMAL ABERRATIONS, Test System: HUMAN PERIPHERAL BLOOD LYMPHOCYTES, Metabolic Activation: NONE inactive; negative | End Point: IN VITRO MICRONUCLEUS, Test System: HUMAN PERIPHERAL BLOOD LYMPHOCYTES, Metabolic Activation: NONE inactive; negative | End Point: IN VITRO MICRONUCLEUS, Test System: HUMAN PERIPHERAL BLOOD LYMPHOCYTES, Metabolic Activation: S-9 inactive; negative | Test System: AMES SALMONELLA TYPHIMURIUM, Strain/Indicator: TA98, Metabolic Activation: HAMSTER, LIVER, S-9, AROCLOR 1254 (10%), Method: PREINCUBATION inactive; negative | [1] inactive; negative | Test System: AMES SALMONELLA TYPHIMURIUM, Strain/Indicator: TA98, Metabolic Activation: RAT, LIVER, S-9, AROCLOR 1254 (10%), Method: PREINCUBATION inactive; negative | Test System: AMES SALMONELLA TYPHIMURIUM, Strain/Indicator: TA100, Metabolic Activation: HAMSTER, LIVER, S-9, AROCLOR 1254 (10%), Method: PREINCUBATION inactive; negative | [2] inactive; negative | Test System: AMES SALMONELLA TYPHIMURIUM, Strain/Indicator: TA100, Metabolic Activation: RAT, LIVER, S-9, AROCLOR 1254 (10%), Method: PREINCUBATION inactive; negative | Test System: AMES SALMONELLA TYPHIMURIUM, Strain/Indicator: TA1535, Metabolic Activation: HAMSTER, LIVER, S-9, AROCLOR 1254 (10%), Method: PREINCUBATION inactive; negative | [3] inactive; negative | Test System: AMES SALMONELLA TYPHIMURIUM, Strain/Indicator: TA1535, Metabolic Activation: RAT, LIVER, S-9, AROCLOR 1254 (10%), Method: PREINCUBATION inactive; negative | Test System: AMES SALMONELLA TYPHIMURIUM, Strain/Indicator: TA1537, Metabolic Activation: HAMSTER, LIVER, S-9, AROCLOR 1254 (10%), Method: PREINCUBATION inactive; negative | Test System: AMES SALMONELLA TYPHIMURIUM, Strain/Indicator: TA1537, Metabolic Activation: NONE, Method: PREINCUBATION inactive; negative | Test System: AMES SALMONELLA TYPHIMURIUM, Strain/Indicator: TA1537, Metabolic Activation: RAT, LIVER, S-9, AROCLOR 1254 (10%), Method: PREINCUBATION inactive; negative

O=[N+]([O-])c1ccc2c(Cl)nsc2c1
active: [4] active; positive

Cc1cccc2c1ccc1ccccc12
inactive: Test System: AMES SALMONELLA TYPHIMURIUM, Strain/Indicator: TA97, Metabolic Activation: NONE, Method: STANDARD PLATE inactive; negative | [4] inactive; negative | Test System: AMES SALMONELLA TYPHIMURIUM, Strain/Indicator: TA100, Metabolic Activation: NONE, Method: STANDARD PLATE inactive; negative
active: Test System: AMES SALMONELLA TYPHIMURIUM, Strain/Indicator: TA97, Metabolic Activation: RAT, LIVER, S-9, PCB, Method: STANDARD PLATE active; positive | Test System: AMES SALMONELLA TYPHIMURIUM, Strain/Indicator: TA98, Metabolic Activation: RAT, LIVER, S-9, PCB, Method: STANDARD PLATE active; positive | Test System: AMES SALMONELLA TYPHIMURIUM, Strain/Indicator: TA100, Metabolic Activation: RAT, LIVER, S-9, PCB, Method: STANDARD PLATE active; positive

O=C(O)/C=C/C=C/C(=O)O
inactive: End Point: IN VITRO CHROMOSOMAL ABERRATIONS, Test System: HUMAN PERIPHERAL LYMPHOCYTES, Metabolic Activation: NONE, Method: FISH- DUAL COLOR PROBES inactive; negative for translocations | Test System: AMES SALMONELLA TYPHIMURIUM, Strain/Indicator: TA97, Metabolic Activation: NONE, Method: PREINCUBATION inactive; negative | Test System: AMES SALMONELLA TYPHIMURIUM, Strain/Indicator: TA97, Metabolic Activation: RAT, LIVER, S-9, AROCLOR 1254, Method: PREINCUBATION inactive; negative | Test System: AMES SALMONELLA TYPHIMURIUM, Strain/Indicator: TA97, Metabolic Activation: RAT, LIVER, S-9, PHENOBARBITAL AND 5,6-BENZOFLAVONE, Method: PREINCUBATION inactive; negative | [1] inactive; negative | Test System: AMES SALMONELLA TYPHIMURIUM, Strain/Indicator: TA98, Metabolic Activation: RAT, LIVER, S-9, AROCLOR 1254, Method: PREINCUBATION inactive; negative | Test System: AMES SALMONELLA TYPHIMURIUM, Strain/Indicator: TA98, Metabolic Activation: RAT, LIVER, S-9, PHENOBARBITAL AND 5,6-BENZOFLAVONE, Method: PREINCUBATION inactive; negative | [2] inactive; negative | Test System: AMES SALMONELLA TYPHIMURIUM, Strain/Indicator: TA100, Metabolic Activation: RAT, LIVER, S-9, AROCLOR 1254, Method: PREINCUBATION inactive; negative | Test System: AMES SALMONELLA TYPHIMURIUM, Strain/Indicator: TA100, Metabolic Activation: RAT, LIVER, S-9, PHENOBARBITAL AND 5,6-BENZOFLAVONE, Method: PREINCUBATION inactive; negative | Test System: AMES SALMONELLA TYPHIMURIUM, Strain/Indicator: TA102, Metabolic Activation: NONE, Method: PREINCUBATION inactive; negative | Test System: AMES SALMONELLA TYPHIMURIUM, Strain/Indicator: TA102, Metabolic Activation: RAT, LIVER, S-9, AROCLOR 1254, Method: PREINCUBATION inactive; negative | Test System: AMES SALMONELLA TYPHIMURIUM, Strain/Indicator: TA102, Metabolic Activation: RAT, LIVER, S-9, PHENOBARBITAL AND 5,6-BENZOFLAVONE, Method: PREINCUBATION inactive; negative | Test System: AMES SALMONELLA TYPHIMURIUM, Strain/Indicator: TA104, Metabolic Activation: NONE, Method: PREINCUBATION inactive; negative | Test System: AMES SALMONELLA TYPHIMURIUM, Strain/Indicator: TA104, Metabolic Activation: RAT, LIVER, S-9, AROCLOR 1254, Method: PREINCUBATION inactive; negative | Test System: AMES SALMONELLA TYPHIMURIUM, Strain/Indicator: TA104, Metabolic Activation: RAT, LIVER, S-9, PHENOBARBITAL AND 5,6-BENZOFLAVONE, Method: PREINCUBATION inactive; negative | [3] inactive; negative | Test System: AMES SALMONELLA TYPHIMURIUM, Strain/Indicator: TA1535, Metabolic Activation: RAT, LIVER, S-9, AROCLOR 1254, Method: PREINCUBATION inactive; negative | Test System: CHINESE HAMSTER V-79, Strain/Indicator: V-79 (HGPRT)/8-AZAGUANINE, Metabolic Activation: NONE inactive; negative | Test System: CHINESE HAMSTER V-79, Strain/Indicator: V-79/6-THIOGUANINE, Metabolic Activation: NONE inactive; negative | Test System: E. COLI, Strain/Indicator: WP2 UVRA, Metabolic Activation: NONE, Method: PREINCUBATION inactive; negative | Test System: E. COLI, Strain/Indicator: WP2 UVRA, Metabolic Activation: RAT, LIVER, S-9, AROCLOR 1254, Method: PREINCUBATION inactive; negative
active: End Point: IN VITRO CHROMOSOMAL ABERRATIONS, Test System: HUMAN PERIPHERAL LYMPHOCYTES, Metabolic Activation: NONE active; positive (ploidy changes)
